{
  "source": "patent US9408827B2",
  "about": "“Sheet for cutaneous application containing vitamin E or an ester thereof” (IneSalus Corp., priority 2013, dated 2016)",
  "key": {"[1]": {"tested_on": "reconstituted human epidermis Epi-200 EpiDerm™", "experiment": "Release of IL-1α in the culture medium (ELISA)", "conditions": "18-hour treatment; Tukey Kramer Multiple Comparisons Test", "experimental": "Tissue used: EPI-200-SIT EpiDerm™\nCulture medium: EPI-100-MM-HCF-60\n(§1) Incubation conditions: +37° C. in a 5% CO2 atmosphere\n(§2) Treatment with the sample: • continuous contact and incubation for 18 hours (single) • continuous contact and incubation for 7 days (double)\nControls Performed for the First Evaluation (18 Hours): • Negative control after 18 hours: inserts not treated • Positive control: inserts treated with 0.5% SDS (Sodium Dodecylsulphate) in sterile water during 18 hours of incubation;\nControls Performed for the 7-Day Evaluation: • Negative control: inserts not treated with the sample and kept for 7 days in the same incubation conditions as those treated with the sample.\nEvaluation of the Release of IL-1α in the Culture Medium:\nEvaluation in the culture medium obtained after the period of incubation of the sample with EPI-200. The release is measured by means of specific ELISA."}, "[2]": {"tested_on": "reconstituted human epidermis Epi-200 EpiDerm™", "experiment": "Evaluation of the cellular vitality by MTT assay (EpiDerm Skin Irritation Test EPI-200-SIT)", "experimental": "The tolerability of the sheets according to the invention was evaluated by means of an in-vitro assay on models of reconstituted epidermis for evaluation of the cumulative irritation.\nThe assay in question was based on the In vitro Epiderm™ Skin Irritation Test (EPI-200-SIT) developed by the MatTek Corporation, which uses the model of reconstituted human epidermis Epi-200 EpiDerm™.\nThe assay consists in topical application of the material under testing on the reconstituted epidermis for contact times equal to or greater than 18 hours. The irritation potential is determined by means of evaluation of the cellular vitality using the MTT assay.\nConditions for Conducting the Assay for Evaluation of the Cellular Vitality\nTissue used: EPI-200-SIT EpiDerm™\nCulture medium: EPI-100-MM-HCF-60\nas §1, §2\n(§3) Application was carried out by applying about 1 cm^2 of sample (i.e. of the sheet according to the invention obtained as per the example given above) per insert.\n(§4) Controls Performed for the First Evaluation (18 Hours): • Negative control after 18 hours: inserts not treated • Positive control: inserts treated with 0.5% SDS (Sodium Dodecylsulphate) in sterile water during 18 hours of incubation; […]"}, "[3]": {"tested_on": "reconstituted human epidermis Epi-200 EpiDerm™", "experiment": "Release of lactate dehydrogenase (LDH) in the culture medium", "conditions": "18-hour treatment; Tukey Kramer Multiple Comparisons Test", "text": "Further information for better defining the irritation potential was obtained from subsequent measurement of the following parameters: • evaluation of the release, in the culture medium, of the lactate dehydrogenase (LDH), a cytoplasmic enzyme, release of which indicates loss of integrity of the cellular membrane; • evaluation of the release, in the culture medium, of pro-inflammatory cytokine by means of ELISA (Enzyme Linked Immunosorbent Assay).\nTissue used: EPI-200-SIT EpiDerm™\nCulture medium: EPI-100-MM-HCF-60\nas §1, §2, §3, §4\nEvaluation in the culture medium obtained after the incubation period of the sample with the epidermis model. The culture medium is incubated with a specific reagent so as to allow quantitive determination of the lactate dehydrogenase at 490 nm."}},
  "data": [
    {"compound": "CCCCCCCCCCCCOS(=O)(=O)[O-].[Na+]", "note": "[Positive control, Sodium Dodecylsulphate]", "values": [
      {"measurement": "Release of IL-1α, statistical comparison in relation to the negative control", "setting": "[1]", "value": "*** (*** p < 0.001 extremely significant variation)"},
      {"measurement": "Average value of OD ± SD (MTT)", "setting": "[2]; 18-hour continuous contact and incubation", "value": "0.185 ± 0.004"},
      {"measurement": "Average value of the % vitality (MTT)", "setting": "[2]; 18-hour treatment, relative to negative control = 100%", "value": "8.40 ± 0.17", "unit": "%"},
      {"measurement": "Release of LDH, statistical comparison in relation to the negative control", "setting": "[3]", "value": "*** (*** p < 0.001 extremely significant variation)"}
    ]}
  ]
}
